One test has as its system Human TLR7/8. Nature of the test: Human PBMC cell-based assay, TLR7/8 stimulus (RNA-Ig), cytokine ELISA. The following applies: primary human PBMC assay, TLR7/8 potency; ligand not given; read-out: Human PBMCs IC50. The method in brief: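 The agonist was RNA-Ig, a U1 snRNA-derived 26-mer RNA (2.5 μM) complexed with RNA-cross-reacting anti-ssDNA mAb (1:25 or 1 ug/ml), added after 30 min compound pre-incubation (0.1% DMSO). Density-gradient PBMC from healthy donors, 2×10^5/well, were stimulated 20 h at 37 °C; cytokines quantified by ELISA.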
On the technique in general: ELISA stands for enzyme-linked immunosorbent assay.

Another test concerns Mouse Splenocytes. Put plainly: Mouse spleen cell-based assay (R848, IL-6 ELISA). The conditions noted are these: BALB/c spleen cells, 370 nM R848. As for the experimental part:
Mouse Spleen cell-based assay. Spleens were harvested from female BALB/c mice (Jackson Labs, Bar Harbor, Me.) euthanized by CO2. A single cell suspension was obtained by passing spleens through a 40 μm an nylon cell strainer. Cells were washed twice with 50 ml PBS (Mediatech, Inc., Manassas, Va.) and red blood cells were lysed in 5 ml RBC Lysis buffer (eBioscience, Inc., San Diego, Calif.) for 5 minutes at room temperature. Cells were washed twice more in PBS and finally resuspended in supplemented RPMI-1640 at 2.5×10^6 cells/ml. Cells were plated at 100 μl/well (2.5×10^5 cells/well) in 96-well tissue culture treated plates (Falcon). Serial dilutions of compounds solubilized in 100% DMSO were added in triplicate to cells to yield a final concentration of 0.1% DMSO. Cells were incubated with compound for 30 minutes at 37° C., 5% CO2 before adding 100 μl/well of 740 nM R848 (Resiquimod; GLSynthesis, Worcester, Mass.) in complete media for a final concentration of 370 nM R848. Cells were incubated for 20 hours at 37° C., 5% CO2. Culture supernatants were collected, and levels of IL-6 were assessed by standard ELISA procedure according to the manufacturer's recommended protocol (BD Biosciences, Inc., San Diego, Calif.).

The next test has as its target T1, mouse TLR7 (Mus musculus, UniProt P58681).
T1 sequence (P58681 27-1050): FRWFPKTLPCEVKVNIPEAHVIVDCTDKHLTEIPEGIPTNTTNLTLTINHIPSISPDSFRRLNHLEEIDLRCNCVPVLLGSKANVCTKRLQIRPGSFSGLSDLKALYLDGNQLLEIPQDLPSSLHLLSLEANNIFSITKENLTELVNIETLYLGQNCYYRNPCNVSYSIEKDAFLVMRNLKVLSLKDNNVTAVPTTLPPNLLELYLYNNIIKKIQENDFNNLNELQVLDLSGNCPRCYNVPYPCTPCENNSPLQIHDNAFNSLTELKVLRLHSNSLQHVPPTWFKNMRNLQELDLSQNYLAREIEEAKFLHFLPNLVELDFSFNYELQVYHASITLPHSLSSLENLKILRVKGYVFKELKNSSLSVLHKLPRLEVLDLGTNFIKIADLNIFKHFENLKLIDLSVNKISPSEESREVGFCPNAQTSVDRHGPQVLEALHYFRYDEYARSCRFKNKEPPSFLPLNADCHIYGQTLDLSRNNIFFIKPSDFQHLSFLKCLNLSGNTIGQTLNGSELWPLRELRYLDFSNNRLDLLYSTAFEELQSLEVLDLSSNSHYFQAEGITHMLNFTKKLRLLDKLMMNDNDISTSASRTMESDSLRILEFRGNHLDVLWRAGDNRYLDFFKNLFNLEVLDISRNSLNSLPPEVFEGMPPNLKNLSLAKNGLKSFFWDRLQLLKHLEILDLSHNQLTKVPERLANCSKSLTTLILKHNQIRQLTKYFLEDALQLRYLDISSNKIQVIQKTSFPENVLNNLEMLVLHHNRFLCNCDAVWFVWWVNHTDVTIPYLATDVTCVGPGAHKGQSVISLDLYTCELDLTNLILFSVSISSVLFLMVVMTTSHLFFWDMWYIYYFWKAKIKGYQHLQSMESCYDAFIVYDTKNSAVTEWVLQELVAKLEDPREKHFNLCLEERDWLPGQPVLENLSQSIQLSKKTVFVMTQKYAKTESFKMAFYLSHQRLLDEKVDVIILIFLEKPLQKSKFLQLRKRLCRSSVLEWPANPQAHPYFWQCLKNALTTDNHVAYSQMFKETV
Nature of the test: Short-term in vivo (STIV) assay: oral dosing, R848 s.c., plasma IL-6. Also noted: female BALB/c mice (Jackson Labs, Bar Harbor, Me.) were dosed by oral gavage; tissue Jackson Labs; host or cells: living female BALB/c mice; plasma IL-6 after s.c. R848. The method in brief: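 Female BALB/c mice (6–8 weeks) dosed orally with compound in 0.5% aqueous methyl-cellulose at 33, 100 or 300 mg/kg; at various times afterwards given 15 ug R848 s.c. to stimulate TLR7. Plasma IL-6 measured by ELISA to gauge potency and duration of action.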

A further test deals with T2, human TLR8 (Homo sapiens, UniProt Q9NR97).
T2 construct: host or cells: HEK-293, then stably transfected with pNiFty2(NF-kappaB)-luciferase reporter
T2 sequence (Q9NR97 27-1041): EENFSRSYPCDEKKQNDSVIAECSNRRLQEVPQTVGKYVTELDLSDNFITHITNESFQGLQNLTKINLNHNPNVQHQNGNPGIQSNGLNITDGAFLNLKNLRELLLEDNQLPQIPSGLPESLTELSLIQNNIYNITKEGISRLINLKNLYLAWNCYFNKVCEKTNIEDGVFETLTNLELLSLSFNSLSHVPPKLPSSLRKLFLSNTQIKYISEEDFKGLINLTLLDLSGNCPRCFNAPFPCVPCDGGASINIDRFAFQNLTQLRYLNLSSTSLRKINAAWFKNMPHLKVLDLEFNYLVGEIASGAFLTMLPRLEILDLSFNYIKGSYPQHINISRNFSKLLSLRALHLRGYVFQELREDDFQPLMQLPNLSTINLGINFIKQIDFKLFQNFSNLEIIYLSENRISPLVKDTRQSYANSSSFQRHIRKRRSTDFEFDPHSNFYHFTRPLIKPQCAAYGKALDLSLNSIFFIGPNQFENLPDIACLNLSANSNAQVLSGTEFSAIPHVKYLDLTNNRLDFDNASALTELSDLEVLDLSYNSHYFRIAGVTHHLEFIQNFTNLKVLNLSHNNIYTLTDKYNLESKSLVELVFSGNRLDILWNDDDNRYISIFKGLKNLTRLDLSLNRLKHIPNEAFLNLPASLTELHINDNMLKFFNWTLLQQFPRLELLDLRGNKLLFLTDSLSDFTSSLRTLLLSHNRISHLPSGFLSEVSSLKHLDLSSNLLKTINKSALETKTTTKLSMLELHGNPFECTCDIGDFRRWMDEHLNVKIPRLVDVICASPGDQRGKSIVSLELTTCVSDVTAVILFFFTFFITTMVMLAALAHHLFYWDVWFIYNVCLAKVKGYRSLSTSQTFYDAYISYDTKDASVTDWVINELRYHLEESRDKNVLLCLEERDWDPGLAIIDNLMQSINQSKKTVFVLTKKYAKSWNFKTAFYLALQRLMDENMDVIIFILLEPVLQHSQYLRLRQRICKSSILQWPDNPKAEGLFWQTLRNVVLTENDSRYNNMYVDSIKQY
Put plainly: HEK-293 human TLR8 NF-kappaB luciferase reporter assay (CL097). Format: cell-based. The following applies: HEK-293 assay format; read-out: HEK/hTLR8 IC50. As to the method: Effects on mouse TLR7 were also compared. Cells were stimulated overnight with TLR7/8 agonist CL097 at pre-determined ED70-80: 3 ug/ml for HEK-hTLR7, 1.5 ug/ml for HEK-mTLR7 and 12 ug/ml for HEK-hTLR8, before reading luminescence intensity. Three tests were performed and IC50 value was determined using Graphpad Prism 6 nonlinear regression curve fit.
HEK-293 cells (ATCC) were engineered to stably express a NF-kappaB transcription factor inducible E-selectin (ELAM-1) luciferase reporter derived from the plasmid pGL3 (Promega) containing base pairs −2241 bp to −254 bp from the promoter of the human E-selectin gene (Accession No. NM_000450). These cells were then subsequently engineered to stably and individually express human TLR4, TLR7 or TLR9 full-length ORF cDNAs. Human TLR4 cDNA (Accession No. NM_138554) was cloned into pcDNA 3.0 expression vector (Invitrogen). TLR4 transfected cells were also engineered to express human MD-2 co-receptor [MD-2 cDNA (Accession No. NM_015364) was cloned into the pEF-BOS vector] and were supplemented with 10 nM soluble CD14 (R&D Systems) in the media to optimize LPS responsiveness. Human TLR9 cDNA (Accession No. NM_017442) was cloned into the pBluescript II KS vector (Agilent). Human TLR7 cDNA (Accession No. NM_016562) was obtained from OriGene. HEK-293 cells stably expressing human TLR8 (Accession No. NM_138636) or mouse TLR7 (Accession No. NM_133211) were purchased from InvivoGen and were then stably transfected with pNiFty2(NF-kappaB)-luciferase reporter plasmid (InvivoGen). Each cell type was plated in Dulbecco's modified Eagle's medium (DMEM) containing 10% fetal bovine serum (FBS) at a density of 2.22×10^5 cells/ml into a 384-well plate and incubated for 2 days at 37° C., 5% CO2. Varying concentrations of antagonist compounds were then added. Cells were then incubated for another 30 minutes before adding the appropriate TLR agonist as follows (final concentrations indicated): lipopolysaccharide (LPS; Sigma) at 10 ng/ml for TLR4, CL097 (InvivoGen) at 3 ug/ml for human TLR7 and TLR8 and mouse TLR7, and CvG-2006-2A [sequence: […] (SEQ ID NO: 1) with phosphorothioate backbone, synthesized by Sigma-Aldrich] at 0.6 uM for TLR9.
In general terms: In a reporter assay the amount or activity of a reporter protein is the signal.

Each structure is given as a SMILES string.

For the compound `CC1CN(c2ccc(C#N)c3ncccc23)CC(COc2ncccn2)O1` (stereo not shown) [ER-895325], the IC50 in the test with Human TLR7/8 stood at 26 nM; with Mouse Splenocytes (Mus musculus, Splenocyte) it was 120 nM.
Take `CC1CN(c2ccc(C#N)c3ncccc23)CC(CN2CCN(C)C(C)(C)C2)O1` (stereo not shown) [ER-894656]: the IC50 in the test on Human TLR7/8 turned out to be 7 nM; in the test with Mouse Splenocytes (Mus musculus, Splenocyte) it was 23 nM.
The corresponding values for `C[C@@H]1CN(c2ccc(C#N)c3ncccc23)C[C@H](CN2CCNC(C)(C)C2)O1` [ER-894655] are 5 nM and 84 nM.
Turning to `CC1CN(c2ccc(C#N)c3ncccc23)CC(CN2CCC(N3CCCCC3)C2)O1.Cl.Cl` (stereo not shown) [ER-890311], the IC50 in the test with Mouse Splenocytes is 428 nM. The “% Suppression vs. Vehicle” value at mouse TLR7 (3 h, 33 mg/kg) is given as 88%; on mouse TLR7 (19 h, 3.67 mg/kg) it was 0%; at mouse TLR7 (19 h, 11 mg/kg) it was 0%; on mouse TLR7 (19 h, 33 mg/kg) it was 0%.
As for `CC1CN(c2ccc(C#N)c3ncccc23)CC(CN2CCC(NS(C)(=O)=O)CC2)O1` (stereo not shown) [ER-893948], the IC50 in the test with Human TLR7/8 was 150 nM; in the test on Mouse Splenocytes (Mus musculus, Splenocyte), 420 nM.
For `CC(=O)NC1CN(C[C@H]2CN(c3ccc(C#N)c4ncccc34)C[C@@H](C)O2)C1` [ER-894152] the same measures were 175 nM and 660 nM.
With `CC1CN(c2ccc(C#N)c3ncccc23)CC(C(O)CCc2ccccc2)O1` (single isomer, unassigned) [ER-886568], the IC50 in the test with Human TLR7/8 turned out to be 79 nM; on human TLR8, 5 nM.
For `CC[C@@H]1CN(c2ccc(C#N)c3ncccc23)C[C@H](CO)O1` [ER-887199] the same measures were 117 nM and 77 nM.
With `C[C@@H]1CN(c2ccc(C#N)c3ncccc23)C[C@H](CN2CCCN(C)CC2)O1` [ER-889601], the IC50 with Mouse Splenocytes was 179 nM. Further, the “% Suppression vs. Vehicle” value is recorded as 96% on mouse TLR7 (3 h, 100 mg/kg); 95% at mouse TLR7 (6 h, 33 mg/kg); 90% on mouse TLR7 (6 h, 100 mg/kg); 96% at mouse TLR7 (19 h, 100 mg/kg).
`C[C@@H]1CN(c2ccc(C#N)c3ncccc23)C[C@H](CNC2CCC(O)CC2)O1` (stereo partly shown) [ER-887526]: the IC50 in the test on Human TLR7/8 came out at 50 nM; on human TLR8 it was 122 nM.
With `C[C@@H]1CN(c2ccc(C#N)c3ncccc23)C[C@H](CN2CCC(F)(F)CC2)O1` [ER-887142], the IC50 in the test with Human TLR7/8 was found to be 147 nM; on human TLR8, 115 nM.
For `C[C@@H]1CN(c2ccc(C#N)c3ncccc23)C[C@H](CN2C[C@H](C)NC[C@H]2C)O1` [ER-887272] the same measures were 2 nM and 2.9 nM.
The corresponding values for `C[C@@H]1CN(c2ccc(C#N)c3ncccc23)C[C@H](COc2ccccc2F)O1` [ER-886624] are 23 nM and 86 nM.
For `C[C@@H]1CN(c2ccc(C#N)c3ncccc23)C[C@H](CNc2ccnc(-c3ccccc3)c2)O1` [ER-887588] the same measures were 1 nM and 0.5 nM.
On to `CCOc1cccnc1NC[C@H]1CN(c2ccc(C#N)c3ncccc23)C[C@@H](C)O1` [ER-887587], for which the values for the IC50 with Human TLR7/8 and on human TLR8 were 1 nM and 1.8 nM, respectively.
With `C[C@@H]1CN(c2ccc(C#N)c3ncccc23)C[C@H](CN2CCN(C)[C@@H](C)C2)O1` [ER-890831], the IC50 in the test on Human TLR7/8 came out at 1 nM; with Mouse Splenocytes it was 170 nM.
For the compound `C[C@@H]1CN(c2ccc(C#N)c3ncccc23)C[C@H](CN2CCCCC2CO)O1` (stereo partly shown) [ER-886955], the values for the IC50 in the test with Human TLR7/8 and on human TLR8 were 129 nM and 83 nM, respectively.

The values above are taken from patent USRE47193E1, “Selectively substituted quinoline compounds” (EISAI R&D MANAGEMENT CO., LTD., priority 2013, dated 2019).
